Assays:
[1] = target: T1, aromatase (Homo sapiens, UniProt P11511); conditions: in vitro; cited from earlier work
T1 sequence (P11511 1-503): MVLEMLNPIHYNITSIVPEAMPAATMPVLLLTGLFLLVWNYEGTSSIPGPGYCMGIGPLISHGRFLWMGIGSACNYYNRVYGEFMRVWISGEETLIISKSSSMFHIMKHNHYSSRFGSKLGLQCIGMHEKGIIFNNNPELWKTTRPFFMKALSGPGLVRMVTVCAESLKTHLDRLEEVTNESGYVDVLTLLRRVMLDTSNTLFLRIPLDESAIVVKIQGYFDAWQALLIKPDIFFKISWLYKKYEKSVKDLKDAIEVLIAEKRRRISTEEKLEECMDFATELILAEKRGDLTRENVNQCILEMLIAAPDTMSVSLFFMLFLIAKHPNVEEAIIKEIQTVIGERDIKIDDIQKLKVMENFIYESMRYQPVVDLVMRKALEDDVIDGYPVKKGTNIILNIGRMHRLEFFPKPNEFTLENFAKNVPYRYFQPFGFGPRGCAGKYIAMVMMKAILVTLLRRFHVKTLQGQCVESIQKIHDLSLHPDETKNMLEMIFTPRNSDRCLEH

[2] = test system: 17-ketosteroid reductase; conditions: in vitro; cited from earlier work
[3] = test system: Salmonella; conditions: 0-1000 μg/plate; cited from earlier work
[4] = test system: neurogenesis genes in the hippocampus of mice; experiment: Neurogenesis and neural stem cell RT-PCR array on hippocampus of mice subjected to forced swimming stress; assay type: in vivo
Description: Two-month-old male C57BU6J mice (The Jackson Laboratory, Bar Harbor, Me.), weighing 25-30 g were maintained on a 12-hours light/dark cycle (light on at 07:00) with ad libitum access to food and water and maintained at a regulated temperature of 25±1″C. Upon arrival mice were group-housed and acclimated for 7 days before any intervention.
Mice were randomly divided into three groups as follows: group 1 controls that were not exposed to stress (NES) and treated with vehicle (phosphate buffered saline, PBS); group 2 controls subjected to forced swimming stress (FSB) and treated with vehicle; group 3 subjected to forced swimming stress and treated with cotinine (FSA).
Cotinine ((5S)-1-methyl-5-(3-pyridyl) pyrrolidin-2-one; Sigma-Aldrich Corporation, St. Louis, Mo., USA) solutions were prepared by dissolving the powdered compound in sterile phosphate buffered saline (PBS), and vehicle (PBS). Mice were treated with vehicle or cotinine (5 mg/kg) via gavage. […] All investigators were blind to treatment groups and doses were chosen based on previously studies (Zeitlin, et al., (2012) Cotinine enhances the extinction of contextual fear memory and reduces anxiety after fear conditioning. Behav Brain Res, 228, 284-293.). Treatments were administered for 7 days before the induction of stress. For all animals, treatment continued from the onset of treatment until euthanasia.
To induce chronic stress, mice were subjected to repetitive forced swimming (FS) for six consecutive days, for six minutes each day, as described previously (Furukawa-Hibi, et al., (2011) The hydrophobic dipeptide Leu-lie inhibits immobility induced by repeated forced swimming via the induction of BDNF. Behav Brain Res. 2011 Jul. 7; 220(2):271-280). Each mouse was placed in an inescapable transparent plastic cylinder (40 centimeters (cm) high×20 cm in diameter) filled with water to a depth of 30 cm, for six minutes. Water temperature was maintained at 24-25° C. and water was changed between all trials. In all cases, following exposure, animals were retrieved, dried with a hand towel and returned to their home cages. Mice assigned to NES control group were removed from the animal housing facility and taken to the behavioral testing room during the same period of time than FS mice, but remained in their home cages during the FS period. In all experiments, no mice needed assistance to avoid drowning.
Following behavioral experimentation, euthanasia was performed via cervical dislocation under anesthesia with isofluorane (4% induction, 2% maintenance) by investigators not assigned to prior work with the mice blinded to the treatments. Whole brains were collected and immediately stored frozen at −80° C.
The hippocampi were dissected on ice and placed into RNAlater tubes (Life Technologies; Thermo Fisher Scientific, Waltham, Mass.). RNAlater is a proprietary solution which protects RNA in tissue samples from degradation to allow for analysis at a later date. RNase free conditions were created and maintained throughout the procedure by washing labware in a 0.1% DEPC solution followed by rinsing with RNase free water. Total RNA extraction and purification was performed using RNeasy Lipid Tissue Extraction Kit (Qiagen N.V., Venlon NL). Sample homogenization was performed using Kontes Pellet Pestle Cordless Motor and/or 20 gauge needle and syringe. Samples were extracted using a Qiazol/Chloroform extraction. The samples were purified on an RNeasy spin column using multiple washes. An on-column DNase incubation was performed in order to remove contaminating DNA. The entire extraction and purification step was performed twice to remove all contaminating DNA for samples ran on the neurogenesis arrays. Samples were eluted in RNase free water.
Nucleic acid quantification was performed on the RNA, to determine how many microliters of sample to add to the cDNA reaction, as the reaction requires a specific concentration of RNA to achieve optimal results. […]

[5] = stressed mice treated with cotinine compared to stressed mice treated with vehicle

For `CN1C(=O)CC[C@H]1c1cccnc1` [cotinine, (5S)-1-methyl-5-(3-pyridyl) pyrrolidin-2-one], the inhibition of aromatase [1] is listed as “inhibiting”, the “inhibition of 17-ketosteroid reductase” value [2] is listed as “inhibiting” and the “genotoxic effects, Salmonella mutagenicity” value [3] is listed as “no genotoxic effects”. For the same compound, the “decrease in share of down-regulated neurogenesis genes” value ([4]; FSA versus stressed vehicle-treated, each compared to non-stressed mice) was 17%, the neurogenesis genes down-regulated ([4]; forced swimming stress + cotinine (FSA) compared to mice not exposed to stress) was 56% and the “neurogenesis genes analyzed that were up regulated” value ([4]; hippocampi from cotinine-treated stressed mice compared to vehicle-treated stressed mice) was 67%. The “VEGFa mRNA expression, RT-PCR assay” value ([4]; hippocampus of cotinine-treated FS mice compared to vehicle-treated FS mice (p<0.01)) was “up-regulated”, the “number of neurogenesis genes with differential regulation” value ([4]; results from all three comparisons, 1.3-fold cut-off with opposite effect by cotinine) was 15 genes and the “Errb2 expression up regulation” value ([4]; stressed mice treated with cotinine compared to stress control mice) was 1.3 fold. The “Artn expression up regulation” value [4, 5] was 1.2 fold, the “EGF expression up regulation” value [4, 5] was 1.5 fold and the “Gdnf expression up regulation” value [4, 5] was 2.0 fold. For the same compound, the “VEGFa expression up regulation” value [4, 5] was 1.3 fold.
